We go through 6 molecules from patent US20260374773A1, “MULTI-CYCLIC IRAK AND FLT3 INHIBITING COMPOUNDS AND USES THEREOF” (CHILDREN'S HOSPITAL MEDICAL CENTER, priority 2022, published 2026).

One data set concerns Menin-KMT2A (MLL). As to conditions: pre-clinical studies; cited from earlier work.
For another data set, the system named is AML cell lines. As to conditions: combined with a concentration of an exemplary IRAK inhibitor; cited from earlier work.
The next data set concerns E-selectin. As to conditions: with chemotherapy; AML mouse models; cited from earlier work.
In a further data set the test system is THP1 cells. Kind of data set: Combination drug screening with venetoclax, Cell Titer Glo, THP1. Format: cell-based. As to conditions: compound 0-20 μM, venetoclax 0-2 μM, 10 × 10, 48 h, negative = synergy. The method, then: (§1) Combination drug therapy has the potential to produce enhanced effects with lower side effects not obtained using either agent alone, or beyond the additive effect of the different concentrations of the two different agents. To determine whether enhanced effects are observed in different drug combinations, combination drug screening was performed as previously described (Mathews-Griner, L. A. et al., Proc. Nat. Acad. Sci., 2014, 111:2349-2354; Lin, G. L. et al., Sci. Trans. Med., 2019, 11: eaaw0064). Briefly, 10 nL of compounds were acoustically dispensed into 1536-well white polystyrene tissue culture-treated plates with an Echo 550 acoustic liquid handler (Labcyte). Cells were then added to compound-containing plates at a density of 500-cells/well in 5 μL of medium. A 10-point custom concentration range was used for all listed drugs in a 10×10 matrix. Plates were incubated for 48 hours at standard incubator conditions covered by a stainless steel gasketed lid to prevent evaporation. 48 hours post compound addition, 3 μL of Cell Titer Glo (Promega) were added to each well and plates were incubated at room temperature for 15 minutes with the stainless-steel lid in place. Luminescence readings were taken using a Viewlux imager (PerkinElmer) with a 2 second exposure time per plate.
(§2) Each compound was studied in combination with venetoclax at two concentration ranges of compound and venetoclax, respectively (for a total of 4 combination dose-response curves). The dose combinations that yielded the optimal synergy score, measured as excess HSA, which are reported in Tables 23 and 24 for the FLT3 mutant cell line MOLM14 (D835Y) and the FLT3 WT cell line THP1, respectively.
Table 24 provides combination outcomes for representative compounds with venetoclax in the Cell Titer Glo assay in THP1 (FLT3 wild type) cells at 48 hours. The table provides relative excess HSA values for compounds of the disclosure used in combination with venetoclax compared to gilteritinib hemifumarate used in combination with venetoclax. A negative excess HSA score illustrates that the drug combination is better than either drug alone, wherein greater synergy is observed at larger negative values of the excess HSA score.
(§3) Excess HSA is a measure of synergy vs. additivity or antagonism, wherein a negative excess HSA value is indicative of synergy. More information on excess HSA scores can be found in Vlot, Anna H. C. et al., Drug Discovery Today, 2019, 24(12):2286-2298. […] However, different methodologies may yield different numerical scores, and different definitions of what constitutes a deviation from mere additivity vs true drug synergy. The large negative excess HSA values provided in Tables 23 and 24 illustrate that multiple members of this structural class synergize with venetoclax. The degree to which combination therapy has to potential to produce enhanced effects with lower side effects not obtained using either agent alone, or beyond the additive effect of the different concentrations of the two different agents depends on the nature of the drugs used in the combination, and the specific doses/concentrations at which they are ultimately used in the therapeutic regimen. A negative excess HSA score illustrates that the drug combination is better than either drug alone (at the concentrations being studied). […] However, the utility in certain drug combinations vs. others should not be distinguished based on cutoffs between excess HSA scores, because the score itself is only a relative indicator that is completely dependent on experimental design and is not an absolute number. Furthermore, the concept of what constitutes clinically meaningful drug synergy is something that is still being debated, not only between pharmacologists and physicians, but amongst pharmacologists themselves. […]
In general terms: Cellular ATP, detected with luciferase, serves as a proxy for viable cell number.

The subject of a further data set is MOLM14 (D835Y) cells. Kind of data set: Combination drug screening with venetoclax, Cell Titer Glo, MOLM14 (D835Y). Type of data set: cell-based. Also on record: key: relative excess HSA score; more negative = greater synergy. The note with it: compound 0-0.5 μM, venetoclax 0-20 μM, 10 × 10, 48 h, negative = synergy. The method, then: as §1, §2
Table 23 provides combination outcomes for representative compounds with venetoclax in the Cell Titer Glo assay in MOLM14 (D835Y) cells (a FLT3 mutant cell line) at 48 hours. The table provides relative excess HSA values for compounds of the disclosure used in combination with venetoclax compared to gilteritinib hemifumarate used in combination with venetoclax. A negative excess HSA score illustrates that the drug combination is better than either drug alone, wherein greater synergy is observed at larger negative values of the excess HSA score.
as §3

The test system of data set [1] is subjects with myelodysplastic syndrome. As to conditions: after receiving azacitidine; cited from earlier work.

As for `CCN(C(=O)c1cc(F)ccc1Oc1cncnc1N1CC2(CCN(C[C@H]3CC[C@H](NS(=O)(=O)CC)CC3)CC2)C1)C(C)C` [SNDX-5613], in the data set on Menin-KMT2A (MLL), the pharmacokinetic properties entry is listed as “excellent pharmacokinetic properties” and the toxicity profile result is “low toxicity profiles”.
As for `CNc1nc(NC2CCN(Cc3ccc4c(cc(C#N)n4C[C@H](C)N4CCN(S(C)(=O)=O)CC4)c3C)CC2)c2cc(CC(F)(F)F)sc2n1` [KO-539], in the data set with Menin-KMT2A (MLL), the pharmacokinetic properties entry is given as “excellent pharmacokinetic properties” and the toxicity profile result is “low toxicity profiles”.
Turning to `CC1(C)CCC(CN2CCN(c3ccc(C(=O)NS(=O)(=O)c4ccc(NCC5CCOCC5)c([N+](=O)[O-])c4)c(Oc4cnc5[nH]ccc5c4)c3)CC2)=C(c2ccc(Cl)cc2)C1` [venetoclax], the “increase of potency of venetoclax” value with AML cell lines is on record as ~ 50 -fold.
As for `CC[C@H]1C[C@@H](C(=O)NCCNC(=O)CCOCCOCCOCCOCCOCCOCCOCCOCCOCCOCCOCCOC)C[C@@H](O[C@@H]2O[C@H](CO)[C@H](O)[C@H](O[C@@H](CC3CCCCC3)C(=O)O)[C@H]2NC(C)=O)[C@@H]1O[C@@H]1O[C@@H](C)[C@@H](O)[C@@H](O)[C@@H]1O` [Uproleselan], the “duration of mouse survival over chemotherapy alone” value in the data set with E-selectin was “doubling the duration of mouse survival over chemotherapy alone”.
As for `CCc1nc(C(N)=O)c(Nc2ccc(N3CCC(N4CCN(C)CC4)CC3)c(OC)c2)nc1NC1CCOCC1` [Gilteritinib hemifumarate, Gilteritinib, reference compound], the “Excess HSA” value is given as −1626 with THP1 cells and −1556 in the data set on MOLM14 (D835Y) cells.
Turning to `Nc1ncn([C@@H]2O[C@H](CO)[C@@H](O)[C@H]2O)c(=O)n1` [azacitidine], the “patients who required blood transfusions and no longer needed them” value in data set [1] was “about two-thirds”.
